Ends that are not written are not given here.
Experiments:
Swiss Webster mice = assay: Naloxone-precipitated morphine withdrawal, CRH driven rodent model 1 (Example 5); assay type: in vivo, mouse
Description: In one model, Swiss Webster mice were stressed following chronic opiate administration.
In this Example, TCAP-1 was administered at the graded doses, daily for three days prior to administration of morphine. Morphine was then administered at 3.2 mg/kg i.p. on day 4 (5 times) and 5 (twice), and then one hour the last dose of morphine, naloxone is administered i.p at 10 mg/kg, to induce withdrawal.
One hour after last morphine treatment (i.e. after administration of Naloxone) the mice were immediately placed individually in an observation area and video recorded 20 minutes. The number of jumps (lifting of all feet off the ground) documented for 20 minutes

C57Bl/6J mice [1] = assay: Chronic social defeat (CSD) model (Example 3); assay type: in vivo, mouse; settings: subcutaneous once a day days 1-7; for attack latency (time between retreat and evaluating the predator): FIG. 8
Source text: (§1) The mouse chronic social defeat (“CSD”) model has been accepted as a model of PTSD [Flandreau, et al, 2018]. This model involves exposure of C57Bl/6J mice to chronic stress by aggressor mice (male CD-1 ex-breeders) for a defined period of 15 days. Starting from day 15, mice were further tested in the open field (OF) model.
Experimental Set Up of Mice.
CD-1 mice were housed, one mouse per cage, during the experiments. C57Bl/6J mice were housed in pairs while not subjected to CSD. Mice are acclimated to the animal facility for minimum 5 days before the onset of the study.
CD-1 aggressor mice are determined by using the procedures by Golden et al. (2011). Screening involves three days of selection testing. After the screening and selection of 80 aggressor mice, the chronic social defeat (CSD) paradigm was conducted.
The CSD mouse group were subcutaneously injected once a day with vehicle or TCAP-1 days 1-7.
Under dim lighting a CSD mouse was subjected to direct exposure with a CD-1 aggressor mouse. […] The latency to the first attack was also recorded, and time needed to gain 60 s physical attack time. After the 10 min session, CSD mice were exposed to CD-1 mice through perforated transparent divider for 24 h. If the CD-1 mice are very aggressive (if wounding consistently exceeds veterinary guidelines), the exposure time can be shortened to 5 min or less.
This setup allows direct and continued olfactory, visual, auditory exposure for the rest of the day. On the following day, a CSD mouse is placed in a cage in similar fashion with 10 min direct exposure followed by chronic exposure through divider. Cycle is repeated for 15 days, replacing the […] with a new one every day until day 15. Thereafter, CSD mice remain caged next to the same CD-1 mice without any further attack sessions or rotations for days 16-17.
Attack latency is the period between retreat and confrontation. […] Aggressive contact time reflects the number of direct contacts. FIG. 9 illustrates that administration of TCAP-1, the animal will approach the predator and not retreat.

Sprague-Dawley rat (SD) = assay: Restraint stress model, corticosterone (Example 7, FIG. 14 B); assay type: in vivo; settings: amidated human TCAP-1 (SEQ ID NO: 2); restraint 30-60 minutes on successive days; dosed at day 1 and day 2; effect within 3 days
Source text: Amidated mouse TCAP-1 (SEQ ID NO: 1) was suspended in 0.9% saline. [[…], Ambiopharm] for subcutaneous injection in the interscapular region and used in Examples 1, Amidated human TCAP-1 (SEQ ID NO: 2) was suspended in 0.9% saline. [10 nmol/Kg, Ambiopharm] was used in Example 7, for the SD-rat (FIG. 14 B).
(§2) The inventors, extended the behavioural activity in a severe restraint model the changes in a stress related biomarker such as corticosterone is depicted in FIG. 14. (See for example de Pablos, R. N. et al (2014), Creating a Rat model of Chronic Variate Stress. Bio-protocol 4(23): e1315.DOI).
(§3) In this model animals, Swiss Webster mice (SW) (FIG. 14 A) and Sprague-Dawley rat (SD) (FIG. 14 B) were restrained in confined spaces for upwards of 30-60 minutes on successive days. TCAP-1 was administered once at day 1 and at day 2 in the 5-day model.

C57Bl/6J mice [2] = assay: Open field motor activity (OF) after CSD (Example 4); assay type: in vivo, mouse; settings: 15 min open field
Description: as §1
Behavioral tests such as Open field motor activity (OF) were also conducted. See the schematic of FIG. 7.
In this model set up the test was conducted 15 days after the last CSD session. The mouse was placed on the Open Field apparatus floor in the center of empty arena for 15 min without exposure to any other stimuli. The following parameters were calculated from the data: distance moved, number of vertical rearing's, velocity and % resting time (no movement activity). Open field activity chambers (Med Associates Inc, St Albans, Vt.; 27×27×20.3 cm) are equipped with IR beams with red light conditions. A mouse is considered to have no movement activity when the mouse is not breaking two adjacent beams consecutively (distance between two adjacent beams is about 1.7 cm).

[3] = tested on: Male adult Sprague-Dawley rats; assay: Modified Open Field Test with noise pollution (Example 1); assay type: in vivo, rat
Source text: Male adult Sprague-Dawley rats (˜350 g) treated for 3 months (1 injection/week) with either vehicle (0.9% saline) or TCAP-1 (25 nmoles/kg) were used in Example 1.
Behaviour—Modified Open Field Test
The Open Field Test is a behavioral test paradigm used to investigate anxiety-related behaviours in rodents (Bailey K R and Crawley J N, 2009, in: Buccafusco J J, editor. Source Methods of Behavior Analysis in Neuroscience. 2nd edition. Boca Raton (Fla.): CRC Press/Taylor & Francis; 2009. Chapter 5.). In this experiment, the animals were exposed to high frequency noise pollution to induce a stress response while the animals were in the OFT apparatus. The test was performed one week post last injection of the long-term (3 month) treatment with either vehicle (0.9% saline) or TCAP-1 (25 nmoles/kg). Animals were individually placed in a plexiglass box (50 L×50 W) and digitally recorded and tracked for five (5) minutes. In the centre of the box is a designated section termed the centre zone. Behaviours are then analyzed from videos and recorded for time spent in centre zone, distance travelled in centre zone, and total distance travelled. Moreover, peering behaviour, grooming behaviour, and rearing behaviour were also analyzed (definitions below).
(a) Peering: Digital recordings were analyzed for Peering behaviour. Peering behaviour was defined as the specific notion where animals would stand on their back hind limbs in order to look over the side of the glass wall (i.e, The event where an animal rears specifically to peer over the side of the apparatus). This behaviour can be interpreted as an explorative or anti-fear response.
(b) Grooming: Digital recordings were analyzed for Grooming behaviour. Grooming behaviour was defined as the animals cleaning their face or bodies, i.e., the event where an animal grooms himself (usually his hands and face).
(c) Rearing: Digital recordings were analyzed for Rearing behaviour. Rearing behaviour was defined as an event where animals stand on their hind limbs (i.e., the event where an animal gets on his hind limbs in exploration). This behaviour is interpreted as an explorative behaviour, which is a low anxiety response.
Animals were digitally recorded and tracked for five (5) minutes in the Open Field Test with noise pollution. The noise pollution was large construction noise, intermittent and not at predictable intervals. […] As rearing behaviour is highly associated with anti-anxious behaviour, this corroborates the data indicating TCAP-1 is reducing stress-related behaviour.

Swiss Webster mice (SW) = assay: Restraint stress model, corticosterone (Example 7, FIG. 14 A); assay type: in vivo, mouse; settings: restraint 30-60 minutes on successive days; dosed once at day 1 and day 2; effect in 5 days
Description: as §2, §3

Male, Swiss Webster mice = assay: Naloxone-precipitated morphine withdrawal, CRH driven rodent model 2 (Example 6); assay type: in vivo, mouse
Description: A similar study was performed using a CRH antagonist (CP154, 526) in the precipitated withdrawal model.
Male, Swiss Webster mice were treated with seven (7) doses of Morphine 3.2 mg/kg i.p. (d1×5 and d2×2). Animals were then administered a test substance subcutaneously one hour after the last morphine injection with either: (i) nothing (morphine only); (ii) CRH antagonist (CP154, 526) or (iii) TCAP-1 and then an hour after the test substance the animals were administered naloxone i.p at 10 mg/kg, to induce withdrawal.
Two hours after last morphine treatment (i.e. after administration of Naloxone) the mice were immediately placed individually in an observation area and video recorded 20 minutes. The number of jumps (lifting of all feet off the ground) documented for 20 minutes.
(For description on CP154, 526 see for example, CNS Drug Reviews, Vol. 9, No. 1, pp 57-96, Seymour, Patricia A., et al, “The Pharmacology of CP-154,526, A Non-Peptide Antagonist of the CRH1 Receptor: A Review, incorporated herein by reference.)

[4] = 25 nmoles/kg, 1 injection/week for 3 months, 5 min, vs vehicle

Row | Compound | jumping activity (number of jumps per 20 minutes) following naloxone (Swiss Webster mice; graded doses daily for three days prior to morphine 3.2 mg/kg i.p., naloxone 10 mg/kg i.p., FIG. 12) | symptomology of precipitated withdrawal (Swiss Webster mice; mice stressed following chronic opiate administration) | attack latency (time between retreat and evaluating the predator) (C57Bl/6J mice [1]) | attack latency (time between retreat and evaluating the predator) (C57Bl/6J mice [1]; listed as TCAp-1) | aggressive contact time (number of direct contacts) (C57Bl/6J mice [1]; FIG. 9) | rise in corticosterone (Sprague-Dawley rat (SD)) | anxiety toward surroundings (C57Bl/6J mice [2]) | number of vertical rearings (C57Bl/6J mice [2]; FIG. 10) | time in the centre zone ([3]; 25 nmoles/kg, 1 injection/week for 3 months, tested one week post last injection, 5 min, vs vehicle) | entries into centre zone [3, 4] | grooming behaviour [3, 4] | peering behaviour [3, 4] | rearing behaviour [3, 4] | stress-related behaviour in the Open Field Test with noise pollution ([3]; chronic TCAP-1 administration) | rise in corticosterone (Swiss Webster mice (SW)) | number of jumps per 20 minutes after naloxone (Male, Swiss Webster mice; TCAP-1 250 nmole/Kg subcutaneously one hour after last morphine, versus CP154, 526 at 20 mg/Kg, FIG. 13) | symptomology of precipitated withdrawal (Male, Swiss Webster mice; small molecule CRH antagonist, 20 mg/Kg subcutaneously)
1 | Teneurin C-Terminal Associated Peptide-1 (QQLLGTGRVQGYDGYFVLSVEQYLELSDSANNIHFMRQSEI-NH2; not fully specified) [TCAP-1] | dose dependent reduction in jumping activity | efficiently modulated | attack latency increased | reduces the time between retreat and evaluating the predator | increased | modulated the rise in corticosterone | reduced anxiety toward their surroundings | reduced rearing events were observed | significantly more time in the centre zone | more entries into centre zone | not found to be significantly different between groups | not found to be significantly different between groups | significantly increased | significantly decreased stress-related behaviour | modulated the rise in corticosterone | efficacy | 
2 | CCCCN(CC)c1nc(C)nc2c1c(C)cn2-c1c(C)cc(C)cc1C [CP154, 526, reference compound] |  |  |  |  |  |  |  |  |  |  |  |  |  |  |  |  | limited success

From patent publication US11426444B2, “Compositions, methods and uses for treating post-traumatic stress disorder” (priority 2017, dated 2022)
